Laboratory results reported in patent US9371337B2, “β-lactamase inhibitors” (The Regents of the University of California, priority 2011, dated 2016).
Read-outs that look alike come from different tables or passages of the source.

Tests used:
AmpC β-lactamase [1] = molecular target: T1, AmpC β-lactamase (Escherichia coli, UniProt P00811); assay: biochemical; assay type: biochemical
T1 construct: made in house
Method: FIG. 18. Representative IC50 curves. […] IC50 curves were obtained by measuring rates (in duplicates) at different inhibitor concentrations (x-axis) and by determining the residual activity (y-axis, in percentage). IC50 values were determined by non-linear regression and Ki values calculated using GraphPad software assuming competitive inhibition.
Sulfonamidomethaneboronic acids were dissolved in 100% DMSO at a concentration of 100 mM; more diluted stocks were prepared as necessary. […] The enzyme was expressed and purified as described (Usher, K. C. et al., Biochemistry 1998, 37, 16082-16092) and CENTA was purchased from Tydock Pharma.
Kinetic measurements were run at room temperature in 50 mM sodium-cacodylate pH 6.5 in the presence of 0.01% Triton-X to prevent non-specific inhibition via compound aggregation. […] (Kettner, C. A. and Shenvi, A. B., J. Biol. Chem. 1984, 259, 15106-15114) Reactions were performed in 1 mL cuvettes with 60 μM CENTA and initiated by adding 1.2 nM enzyme. […] (Weston, G. S. et al., J. Med. Chem. 1998, 41, 4577-4586) The first 180 sec of each reaction were used to measure initial rates. IC50 values were obtained by fitting binding data to a sigmoidal dose-response equation using GraphPad Prism (GraphPad software, Inc). Ki values were determined by the use of Cheng-Prusoff equation. (Cheng, Y. and Prusoff, W. H., Biochem. Pharmacol. 1973, 22, 3099-3108)

[2] = molecular target: T2, α-chymotrypsin (bovine pancreatic) (Bos taurus, UniProt P00766); assay: α-Chymotrypsin inhibition; assay type: biochemical; details: for activity at 100 µM: Table 4b, 100 μM inhibitor, read-out: Percentage activity with 100 μM inhibitor; for potency estimated from few doses: Table 4e, read-out: IC50 (Estimated from single concentration measurement); for Ki: Table 10, α-Chymotrypsin; for Selectivity vs AmpC (comparison of IC50 values): Table 4h, Chymotrypsin vs AmpC; for inhibition at 100 µM: read-out: Percentage inhibition with 100 μM inhibitor
T2 construct: purchased Sigma-Aldrich
Method: α-Chymotrypsin assays were performed in 50 mM Tris buffer pH 7.5 with 0.01% Triton-X. Inhibitor and 0.001 mg/mL enzyme were incubated at their final concentration for 10 min before the reaction was initiated by the addition of 200 μM N-succinyl-Ala-Ala-Pro-Phe p-nitroanilide and monitored at 410 nm.
(§1) To assess the selectivity of the new molecules we determined Ki values against three common serine proteases, Trypsin, Elastase and α-Chymotrypsin, as well as that of a class A β-lactamase, CTX-M-9 (Table 10) (Pouvreau L, et al. (1998), FEBS Lett 423:167-172; Del Mar E G, et al. (1980), Biochemistry 19:468-472; Rodriguez-Martinez J A, et al. (2009), Biotechnol Lett 31:883-887; Chen Y, et al. (2005), J Mol Biol 348:349-362).

Trypsin [3] = assay: Trypsin inhibition; assay type: biochemical; details: Table 4h, Trypsin vs AmpC
Trypsin [4] = molecular target: T3, Trypsin (UniProt P00760); assay: Trypsin inhibition; assay type: biochemical; details: for Percentage activity with 100 μM inhibitor: Table 4b; for Percentage inhibition with 100 μM inhibitor: Table 4c; for potency estimated from few doses: read-out: IC50 (Estimated from single concentration measurement), Table 4e
T3 construct: IC50 (Estimated from single concentration measurement); Ki
T3 sequence (P00760 1-246): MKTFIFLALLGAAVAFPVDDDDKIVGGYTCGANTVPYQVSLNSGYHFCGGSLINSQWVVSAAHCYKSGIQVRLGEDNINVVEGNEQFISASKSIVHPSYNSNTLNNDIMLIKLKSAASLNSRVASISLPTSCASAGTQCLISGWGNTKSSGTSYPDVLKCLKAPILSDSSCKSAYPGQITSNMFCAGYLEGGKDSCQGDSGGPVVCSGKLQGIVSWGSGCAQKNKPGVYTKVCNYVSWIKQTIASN

[5] = tested on: clinical strains resistant to third-generation cephalosporins; assay: MIC distribution of third-generation cephalosporins alone or with compounds over clinical strains; assay type: cell-based; details: for clinical isolates for which MICs dropped into the susceptible range (MICs≦1 μg/mL): cephalosporins combined with the compound; for MIC 25% percentile / MIC 75% percentile: third-generation cephalosporins in combination with the compound
Method: The anti-resistance activity of inhibitors was investigated by the determination of the minimum inhibitory concentrations (MICs) of the β-lactam/inhibitor combination necessary to inhibit the growth of clinically-isolated bacteria resistant to third-generation cephalosporins via expression of class A or class C β-lactamases (Table 6).
Susceptibility testing was performed and interpreted following the guidelines of CLSI. (Clinical and Laboratory Standards Institute, Performance standards for antimicrobial susceptibility testing, 20th Informational Supplement, M100-S20 2010) The compounds were dissolved in 50% DMSO, and dilutions were performed using Muller-Hinton medium. An adequate final concentration was obtained to determine the minimum inhibitory concentrations (MICs). The concentration of DMSO was maintained below 5%. The inhibitors were tested for synergy with the third-generation β-lactams ceftazidime and cefotaxime against several clinical bacteria. The ratio of β-lactams to inhibitors was 1:4. Each value reported reflects the average of three independent experiments. […] The Friedman's test and the Wilcoxon signed rank test were used to compare MIC values. Statistical significance was established at p<0.05.

Elastase = Elastase inhibition; assay type: biochemical; details: Table 4h, Elastase vs AmpC
From the text: as §1

CTX-M-9 β-lactamase = CTX-M-9 β-lactamase (Escherichia coli, UniProt Q9L5C8); assay: biochemical; assay type: biochemical; details: for Ki: Table 8, read-out: Ki vs CTX-M-9; for Selectivity vs AmpC (comparison of IC50 values): Table 4h, CTX-M-9 vs AmpC; for potency estimated from few doses: read-out: IC50 (Estimated from single concentration measurement); for inhibition at 16 µM: read-out: Percentage inhibition with 16 μM inhibitor
Method: Reactions were initiated by the addition of 0.3 nM enzyme and monitored at 405 nm.
as §1

AmpC β-lactamase [6] = molecular target: T1, AmpC β-lactamase; assay type: biochemical; details: for type of inhibition: Lineweaver-Burk analysis, competition with substrate CENTA; for time dependence of inhibition (incubation effect, off-rate): enzyme incubation and dilution experiments
Trypsin [7] = molecular target: T3, Trypsin; assay: Trypsin inhibition; assay type: biochemical; details: Table 10, Trypsin
From the text: as §1

[8] = Ki (from multi- or single concentration measurements), Table 4g

Chain of CTX-M-9 β-lactamase (Q9L5C8 29-291): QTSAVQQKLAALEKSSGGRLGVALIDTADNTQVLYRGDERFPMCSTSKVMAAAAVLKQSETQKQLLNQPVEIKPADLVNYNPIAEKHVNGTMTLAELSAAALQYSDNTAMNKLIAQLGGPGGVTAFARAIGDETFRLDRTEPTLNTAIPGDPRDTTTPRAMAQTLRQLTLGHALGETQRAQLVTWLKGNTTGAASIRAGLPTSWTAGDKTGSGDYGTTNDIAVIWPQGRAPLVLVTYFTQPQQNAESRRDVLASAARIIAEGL
T1 sequence (P00811 20-377): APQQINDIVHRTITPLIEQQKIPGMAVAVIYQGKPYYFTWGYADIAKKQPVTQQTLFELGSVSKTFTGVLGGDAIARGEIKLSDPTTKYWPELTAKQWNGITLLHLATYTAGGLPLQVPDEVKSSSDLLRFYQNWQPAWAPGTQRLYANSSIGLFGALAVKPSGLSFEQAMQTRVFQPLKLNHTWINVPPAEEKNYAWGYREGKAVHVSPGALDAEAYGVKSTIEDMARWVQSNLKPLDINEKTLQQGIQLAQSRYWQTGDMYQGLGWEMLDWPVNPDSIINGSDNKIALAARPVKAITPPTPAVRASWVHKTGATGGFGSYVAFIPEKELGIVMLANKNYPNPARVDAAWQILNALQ

## Cc1ccc(S(=O)(=O)N(C)CB(O)O)cc1 [CR14]
AmpC β-lactamase [1]; Ki Vs AmpC, Table 7
  Ki: 0.63 µM

## Cc1ccc(S(=O)(=O)N(CB(O)O)C(C)(C)C)cc1 [CR17]
AmpC β-lactamase [1]; Ki Vs AmpC, Table 7
  Ki: 2.5 µM

## CC(C)(C)N(CB(O)O)S(=O)(=O)Cc1ccccc1 [CR22]
AmpC β-lactamase [1]; Ki Vs AmpC, Table 7
  Ki: 5.1 µM

## O=S(=O)(NCB(O)O)c1ccc(-c2nnn[nH]2)cc1 [CR157, [4-(3-tetrazol-5-yl)benzensulfonylamino]methaneboronic acid]
[2]
  activity at 100 µM: 90%
  potency estimated from few doses: 900 µM
  Ki: 224 µM
  Selectivity vs AmpC (comparison of IC50 values): 145161
  inhibition at 100 µM: 10%
Trypsin [3]
  Selectivity vs AmpC (comparison of IC50 values): 306452
Trypsin [4]
  Percentage activity with 100 μM inhibitor: 95
  Percentage inhibition with 100 μM inhibitor: 5
  potency estimated from few doses: 1900 µM
[5]
  clinical isolates for which MICs dropped into the susceptible range (MICs≦1 μg/mL): 25%
  MIC 25% percentile: 1.5 mg/L
  MIC 75% percentile: 4.0 mg/L
Elastase
  Selectivity vs AmpC (comparison of IC50 values): 31309
CTX-M-9 β-lactamase
  IC50: 10.5 µM
  Ki: 2.5 µM
  Selectivity vs AmpC (comparison of IC50 values): 1694
  potency estimated from few doses: 6 µM
  inhibition at 16 µM: 73%
AmpC β-lactamase [6]
  type of inhibition: competitive
  time dependence of inhibition (incubation effect, off-rate): incubation effect owing to slow off-rates
AmpC β-lactamase [1]
  IC50: 0.0062 µM
AmpC β-lactamase [1]; Ki
  Ki: 0.0008 to 0.0013 µM
AmpC β-lactamase [1]; [8]
  Ki: 0.0012 µM
AmpC β-lactamase [1]; Ki Vs AmpC, Table 7
  Ki: 0.0012 µM
AmpC β-lactamase [1]; Ki vs AmpC, Table 8
  Ki: 0.0012 µM
AmpC β-lactamase [1]; Ki, Table 5
  Ki: 0.0012 µM
AmpC β-lactamase [1]; Ki, Table 10, AmpC
  Ki: 0.0012 µM
AmpC β-lactamase [1]; Table 5
  Ligand efficiency: 0.63
Trypsin [7]
  Ki: 350 µM

## O=S(=O)(NCB(O)O)c1ccc(-c2nn[nH]n2)nc1 [CR161, [6-(3-tetrazol-5-yl)pyridin-3-sulfonylamino]methaneboronic acid hydrocloride]
[2]
  activity at 100 µM: 90%
  potency estimated from few doses: 900 µM
  Ki: 224 µM
  Selectivity vs AmpC (comparison of IC50 values): 136364
  inhibition at 100 µM: 10%
Trypsin [3]
  Selectivity vs AmpC (comparison of IC50 values): 287879
Trypsin [4]
  Percentage activity with 100 μM inhibitor: 95
  Percentage inhibition with 100 μM inhibitor: 5
  potency estimated from few doses: 1900 µM
[5]
  clinical isolates for which MICs dropped into the susceptible range (MICs≦1 μg/mL): 75%
  MIC 25% percentile: 0.5 mg/L
  MIC 75% percentile: 1.5 mg/L
Elastase
  Selectivity vs AmpC (comparison of IC50 values): 25799
CTX-M-9 β-lactamase
  IC50: 6.7 µM
  Ki: 3.9 µM
  Selectivity vs AmpC (comparison of IC50 values): 1015
  potency estimated from few doses: 8 µM
  inhibition at 16 µM: 66%
AmpC β-lactamase [6]
  type of inhibition: competitive
  time dependence of inhibition (incubation effect, off-rate): incubation effect owing to slow off-rates
AmpC β-lactamase [1]
  IC50: 0.0066 µM
AmpC β-lactamase [1]; Ki
  Ki: 0.0008 to 0.0013 µM
AmpC β-lactamase [1]; [8]
  Ki: 0.0008 µM
AmpC β-lactamase [1]; Ki Vs AmpC, Table 7
  Ki: 0.0008 µM
AmpC β-lactamase [1]; Ki vs AmpC, Table 8
  Ki: 0.0008 µM
AmpC β-lactamase [1]; Ki, Table 5
  Ki: 0.0008 µM
AmpC β-lactamase [1]; Ki, Table 10, AmpC
  Ki: 0.0008 µM
AmpC β-lactamase [1]; Table 5
  Ligand efficiency: 0.64
Trypsin [7]
  Ki: 350 µM

## N#Cc1ccc(S(=O)(=O)NCB(O)O)cc1 [CR162, [4-cyanobenzensulfonylamino]methaneboronic acid]
AmpC β-lactamase [1]; Ki Vs AmpC, Table 7
  Ki: 0.31 µM
AmpC β-lactamase [1]; Ki vs AmpC, Table 8
  Ki: 0.31 µM

## N#Cc1ccc(S(=O)(=O)NCB(O)O)cn1 [CR163, [6-cyanopyridin-3-sulfonylamino]methaneboronic acid hydrocloride]
AmpC β-lactamase [1]; Ki Vs AmpC, Table 7
  Ki: 0.27 µM
AmpC β-lactamase [1]; Ki vs AmpC, Table 8
  Ki: 0.27 µM

## CC(C)[C@H](NS(=O)(=O)Cc1ccccc1)B(O)O [CR173, (1R)-1-(Phenylmethanesulfonylamino)-2-methylpropaneboronic acid]
AmpC β-lactamase [1]; Ki Vs AmpC, Table 7
  Ki: 13 µM

## CC(C)[C@H](NS(C)(=O)=O)B(O)O [CR175, (1R)-1-(Methylsulfonylamino)-2-methylpropaneboronic acid]
AmpC β-lactamase [1]; Ki Vs AmpC, Table 7
  Ki: 100 µM

## CC1(C)OB(c2ccccc2NS(=O)(=O)Cc2ccccc2)OC1(C)C [CR180, Pinacol 2-(phenylmethanesulfonylamino)phenylboronate]
AmpC β-lactamase [1]; Table 7, read-out: Ki Vs AmpC
  Ki: 0.2 µM

## CC1(C)OB(c2ccccc2NS(C)(=O)=O)OC1(C)C [CR181, Pinacol 2-(methylsulfonylamino)phenylboronate]
AmpC β-lactamase [1]; Table 7, read-out: Ki Vs AmpC
  Ki: 0.4 µM
